Data on one compound can be found in ChEMBL document CHEMBL1158727, “Cyclobutane dimers from the Colombian medicinal plant Achyrocline bogotensis” (2005).

What all share (assay type): functional
The subject of experiment [1] is PBMC. Description: Inhibition of LPS-induced IL10 production in human PBMC at 0.3 mg/mL after 48 hrs by ELISA. For orientation: In an ELISA, binding on a coated surface is turned into a signal by an enzyme label.
Experiment [2] has as its system PBMC. In words: Inhibition of LPS-induced IL12 production in human PBMC at 0.3 mg/mL after 48 hrs by ELISA.
Experiment [3] concerns PBMC. Description: Inhibition of LPS-induced TNFalpha production in human PBMC at 0.3 mg/mL after 48 hrs by ELISA.

A word on the inhibition: it is the change of the read-out against control, counted positive when it falls. The low end stands for little suppression, the high end for strong suppression.

As for `C[C@]12C=CC(=O)C=C1CC[C@@H]1[C@@H]2[C@@H](O)C[C@@]2(C)[C@H]1CC[C@]2(O)C(=O)CO` [PREDNISOLONE], the inhibition at 300 µg/mL with PBMC [1] came to 0.14%; in the experiment with PBMC [2], 0.24%; in the experiment with PBMC [3], 0.44%.
